Numbering of substitutions follows the chain as printed.
Key:
M1 mAChR = target: T1, M1 mAChR (Mus musculus, UniProt P12657); assay: IP1 accumulation assay in mouse primary cortical neurons; type: cell-based; details: for log τB (logarithm of the operational efficacy estimate) / τB (antilogarithm of the operational efficacy parameter): IP1 accumulation
T1 sequence (P12657 1-460): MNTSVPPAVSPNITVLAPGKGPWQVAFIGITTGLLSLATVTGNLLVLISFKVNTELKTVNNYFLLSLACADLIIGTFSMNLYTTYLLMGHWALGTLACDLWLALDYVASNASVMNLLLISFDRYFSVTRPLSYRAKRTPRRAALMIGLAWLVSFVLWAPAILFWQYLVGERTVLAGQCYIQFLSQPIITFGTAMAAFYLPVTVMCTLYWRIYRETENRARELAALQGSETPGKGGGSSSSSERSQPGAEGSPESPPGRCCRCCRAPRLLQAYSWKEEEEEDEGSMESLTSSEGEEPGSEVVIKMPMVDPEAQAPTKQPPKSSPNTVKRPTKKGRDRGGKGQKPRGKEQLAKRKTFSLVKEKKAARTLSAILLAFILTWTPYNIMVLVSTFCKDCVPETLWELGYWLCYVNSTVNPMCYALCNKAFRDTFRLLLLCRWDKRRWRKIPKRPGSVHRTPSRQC

hM1 mAChR [1] = target: T2, hM1 mAChR (Homo sapiens, UniProt P11229); assay: Radioligand equilibrium binding assay
T2 sequence (P11229 1-460): T1 sequence (P12657 1-460) with V5A, S254T, K320R, G337A, V413I

hM1 mAChR [2] = target: T2, hM1 mAChR; assay: IP1 accumulation assay in FlpInCHO-hM1; type: cell-based; details: for cluster of two-point profile (change in baseline versus change in pEC50): 1 and 10 μM modulator, compared with BQCA, CHO-M1 cells; for log τB (logarithm of the operational efficacy parameter of the allosteric modulator): operational model of allosterism (eq 2); for log τB (logarithm of the operational efficacy parameter of the allosteric modulator) / log αβ (logarithm of the functional cooperativity estimate between ACh and allosteric modulator): pKB fixed to binding value; for log αβ (logarithm of the functional cooperativity estimate between ACh and allosteric modulator): operational model of allosterism
[3] = mouse cortical neurons, ACh-mediated IP1 accumulation
[4] = 3H-NMS 0.5 nM, allosteric ternary complex model

SMILES	log α (logarithm of the binding cooperativity between ACh and allosteric modulator) (hM1 mAChR [1]; [4])	cluster of two-point profile (change in baseline versus change in pEC50) (hM1 mAChR [2])	log τB (logarithm of the operational efficacy parameter of the allosteric modulator) (hM1 mAChR [2])	log αβ (logarithm of the functional cooperativity estimate between ACh and allosteric modulator) (hM1 mAChR [2])	Kb (hM1 mAChR [1]) [µM]	other results
COc1ccc(Cn2cc(C(=O)O)c(=O)c3ccccc32)cc1 [BQCA, reference compound]	1.26 ± 0.13					log αβ (logarithm of the functional cooperativity estimate) (M1 mAChR; [3]): 1.73 ± 0.34; pKB (negative logarithm of the functional binding affinity estimate for the allosteric modulator) (M1 mAChR; [3]): 4.69 ± 0.40; αβ (antilogarithm of the functional cooperativity parameter) (M1 mAChR; [3]): (54)
Cn1cc(-c2ccc(COc3ccccc3-c3cc(=O)n(C4CCCCC4O)cn3)cc2)cn1 (centres unmarked) [Compound 2, 3-(2-Hydroxycyclohexyl)-6-(2-((4-(1-methyl-1H-pyrazol-4-yl)-benzyl)oxy)phenyl)pyrimidin-4(3H)-one]	1.07 ± 0.19	cluster 2	0.45 ± 0.08	0.79 ± 0.38	0.324	Kb (M1 mAChR): 9.55 µM; log αβ (logarithm of the functional cooperativity estimate) (M1 mAChR; [3]): 2.12 ± 0.18; αβ (antilogarithm of the functional cooperativity parameter) (M1 mAChR; [3]): (132); log τB (logarithm of the operational efficacy estimate) (M1 mAChR; mouse cortical neurons): 0.47 ± 0.13; τB (antilogarithm of the operational efficacy parameter) (M1 mAChR; mouse cortical neurons): (2.95)
Cc1ccc(COc2ccccc2-c2cc(=O)n(C3CCCCC3O)cn2)cn1 (centres unmarked) [Compound 9i, 3-(2-Hydroxycyclohexyl)-6-(2-((6-methylpyridin-3-yl)methoxy)-phenyl)pyrimidin-4(3H)-one]	1.30 ± 0.16		0.37 ± 0.05	1.24 ± 0.18	5.5	Kb (M1 mAChR): 3.24 µM; log αβ (logarithm of the functional cooperativity estimate) (M1 mAChR; [3]): 0.98 ± 0.11; αβ (antilogarithm of the functional cooperativity parameter) (M1 mAChR; [3]): (9.5); log τB (logarithm of the operational efficacy estimate) (M1 mAChR; mouse cortical neurons): −0.52 ± 0.09; τB (antilogarithm of the operational efficacy parameter) (M1 mAChR; mouse cortical neurons): (0.30)
NS(=O)(=O)c1ccc(COc2ccccc2-c2cc(=O)n(C3CCCCC3O)cn2)cc1 (centres unmarked) [Compound 9k, 4-((2-(1-(2-Hydroxycyclohexyl)-6-oxo-1,6-dihydropyrimidin-4-yl)phenoxy)methyl) benzenesulfonamide]		cluster 2				
CN(C)S(=O)(=O)c1ccc(COc2ccccc2-c2cc(=O)n(C3CCCCC3O)cn2)cc1 (centres unmarked) [Compound 9l, 4-((2-(1-(2-Hydroxycyclohexyl)-6-oxo-1,6-dihydropyrimidin-4-yl)phenoxy)methyl)-N,N-dimethylbenzenesulfonamide]		cluster 3				
O=c1cc(-c2ccccc2OCc2ccc(-c3cn[nH]c3)cc2)ncn1C1CCCCC1O (centres unmarked) [Compound 10, 6-(2-((4-(1H-Pyrazol-4-yl)benzyl)oxy)phenyl)-3-(2-hydroxycyclohexyl)pyrimidin-4(3H)-one]		cluster 2				
O=c1cc(-c2ccccc2OCc2ccccc2)ncn1C1CCCCC1O (centres unmarked) [Compound 13, 6-(2-(Benzyloxy)phenyl)-3-(2-hydroxycyclohexyl)pyrimidin-4(3H)-one]	1.14 ± 0.13	cluster 1	0.34 ± 0.05	1.30 ± 0.14	2.95	
O=C(O)c1ccc(COc2ccccc2-c2cc(=O)n(C3CCCCC3O)cn2)cc1 (centres unmarked) [Compound 14a, 4-((2-(1-(2-Hydroxycyclohexyl)-6-oxo-1,6-dihydropyrimidin-4-yl)phenoxy)methyl)benzoic acid]		cluster 1				
NC(=O)c1ccc(COc2ccccc2-c2cc(=O)n(C3CCCCC3O)cn2)cc1 (centres unmarked) [Compound 14b, 4-((2-(1-(2-Hydroxycyclohexyl)-6-oxo-1,6-dihydropyrimidin-4-yl)phenoxy)methyl) benzamide]	1.11 ± 0.09	cluster 2	0.61 ± 0.06	1.14 ± 0.26		pKB (negative logarithm of the binding affinity estimate of the allosteric modulator) (hM1 mAChR [1]; [4]): 6.72 ± 0.03
CN(C)C(=O)c1ccc(COc2ccccc2-c2cc(=O)n(C3CCCCC3O)cn2)cc1 (centres unmarked) [Compound 15a, 4-((2-(1-(2-Hydroxycyclohexyl)-6-oxo-1,6-dihydropyrimidin-4-yl)phenoxy)methyl)-N,N-dimethylbenzamide]		cluster 3				
CNC(=O)c1ccc(COc2ccccc2-c2cc(=O)n(C3CCCCC3O)cn2)cc1 (centres unmarked) [Compound 15b, 4-((2-(1-(2-Hydroxycyclohexyl)-6-oxo-1,6-dihydropyrimidin-4-yl)phenoxy)methyl)-N-methylbenzamide]		cluster 4				
CCN(CC)C(=O)c1ccc(COc2ccccc2-c2cc(=O)n(C3CCCCC3O)cn2)cc1 (centres unmarked) [Compound 15c, N,N-Diethyl-4-((2-(1-(2-hydroxycyclohexyl)-6-oxo-1,6-dihydropyrimidin-4-yl)phenoxy)methyl)benzamide]	0.81 ± 0.12	cluster 3	−0.09 ± 0.06	0.85 ± 0.16	16.2	
CCNC(=O)c1ccc(COc2ccccc2-c2cc(=O)n(C3CCCCC3O)cn2)cc1 (centres unmarked) [Compound 15d, N-Ethyl-4-((2-(1-(2-hydroxycyclohexyl)-6-oxo-1,6-dihydropyrimidin-4-yl)phenoxy)methyl)benzamide]	1.27 ± 0.13	cluster 4	0.79 ± 0.04	1.05 ± 0.20	0.269	
O=C(c1ccc(COc2ccccc2-c2cc(=O)n(C3CCCCC3O)cn2)cc1)N1CCCCC1 (centres unmarked) [Compound 15e, 3-(2-Hydroxycyclohexyl)-6-(2-((4-(piperidine-1-carbonyl)benzyl)-oxy)phenyl)pyrimidin-4(3H)-one]		cluster 3				

From PMC7616175 (ACS chemical neuroscience, 2018)
